According to US20150010928A1, “MEANS AND METHODS FOR ASSESSING AN ENDOCRINE DISEASE OR DISORDER” (priority 2012, published 2015):
Marks after values point to notes of the source that are not given here.

Tested on: male rats
Test: Plasma metabolite profiling (GC-MS, LC-MS, SPE-LC-MS) in male rats dosed once daily over 28 days (OECD 407)
Format: in vivo, rat
Conditions: high dose; for Mannose: Table 15c
Procedure, shortened: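 Metabolites were measured by GC-MS (derivatised) and reversed-phase LC-MS, with steroids by online SPE-LC-MS, in plasma drawn from fasted rats on days 7, 14 and 28 of once-daily dosing (5/sex/group). Values are ratios versus sex-matched untreated controls, normalized to pool samples, with Welch-test p-values.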

SMILES: C[C@]12CCC(=O)C=C1CC[C@@H]1[C@@H]2CC[C@@]2(C)[C@H]1CC[C@]2(C)O [17-alpha-Methyltestosterone]
- Mannose (m7, male rats): 1.14 *
- 3,4-Dihydroxyphenylacetic acid (DOPAC) (m7, male rats, Table 15d): 0.6 *
- 18-Hydroxy-11-deoxycorticosterone (m7, male rats, Table 15d): 0.35 *
- Glycerol phosphate, lipid fraction (m7, male rats, Table 15d): 0.28 *
- Homovanillic acid (HVA) (m7, male rats, Table 15d): 0.74 *
- Lysophosphatidylcholine (C18:1) (m7, male rats, Table 15d): 0.66 *
- Lysophosphatidylethanolamine (C22:5) (m7, male rats, Table 15d): 0.77 *
- Phosphate, lipid fraction (m7, male rats, Table 15d): 0.51 *
- Phosphatidylcholine (C18:0,C18:1) (m7, male rats, Table 15d): 0.78
- Sphingomyelin (d18:1, C16:0) (m7, male rats, Table 15d): 0.34 *
- Sphingomyelin (d18:1,C23:0) (m7, male rats, Table 15d): 0.49 *
- Sphingomyelin (d18:1,C24:0) (m7, male rats, Table 15d): 0.46 *
- Sphingomyelin (d18:2,C18:0) (m7, male rats, Table 15d): 0.4
- TAG No 02 (m7, male rats, Table 15d): 0.41 *
- myo-Inositol, lipid fraction (m7, male rats, Table 15d): 0.4 *
- Cholesterol (m7, Table 14b): 0.29
- Choline plasmalogen No 02 (m7, Table 14b): 0.55
- Lignoceric acid (C24:0) (m7, Table 14b): 0.28
- Sphingomyelin (d18:1, C16:0) (m7, Table 14b): 0.34
- Sphingomyelin (d18:2, C16:0) (m7, Table 14b): 0.39
- erythro-Sphingosine (d18:1) (m7, Table 14b): 0.17
- Mannose (m14, male rats): 1.03
- 3,4-Dihydroxyphenylacetic acid (DOPAC) (m14, male rats, Table 15d): 0.69 *
- 18-Hydroxy-11-deoxycorticosterone (m14, male rats, Table 15d): 0.94
- Glycerol phosphate, lipid fraction (m14, male rats, Table 15d): 0.63 *
- Homovanillic acid (HVA) (m14, male rats, Table 15d): 0.68 *
- Lysophosphatidylcholine (C18:1) (m14, male rats, Table 15d): 0.78 *
- Lysophosphatidylethanolamine (C22:5) (m14, male rats, Table 15d): 0.88 *
- Phosphate, lipid fraction (m14, male rats, Table 15d): 0.64 *
- Phosphatidylcholine (C18:0,C18:1) (m14, male rats, Table 15d): 0.69 *
- Sphingomyelin (d18:1, C16:0) (m14, male rats, Table 15d): 0.28 *
- Sphingomyelin (d18:1,C23:0) (m14, male rats, Table 15d): 0.76
- Sphingomyelin (d18:1,C24:0) (m14, male rats, Table 15d): 0.47 *
- Sphingomyelin (d18:2,C18:0) (m14, male rats, Table 15d): 0.31 *
- TAG No 02 (m14, male rats, Table 15d): 0.3 *
- myo-Inositol, lipid fraction (m14, male rats, Table 15d): 0.49 *
- Cholesterol (m14, Table 14b): 0.41
- Choline plasmalogen No 02 (m14, Table 14b): 0.64
- Lignoceric acid (C24:0) (m14, Table 14b): 0.39
- Sphingomyelin (d18:1, C16:0) (m14, Table 14b): 0.28
- Sphingomyelin (d18:2, C16:0) (m14, Table 14b): 0.38
- erythro-Sphingosine (d18:1) (m14, Table 14b): 0.21
- Mannose (m28, male rats): 1.2 *
- 3,4-Dihydroxyphenylacetic acid (DOPAC) (m28, male rats, Table 15d): 0.74
- 18-Hydroxy-11-deoxycorticosterone (m28, male rats, Table 15d): 0.55 *
- Glycerol phosphate, lipid fraction (m28, male rats, Table 15d): 0.47 *
- Homovanillic acid (HVA) (m28, male rats, Table 15d): 0.92
- Lysophosphatidylcholine (C18:1) (m28, male rats, Table 15d): 0.73 *
- Lysophosphatidylethanolamine (C22:5) (m28, male rats, Table 15d): 0.77 *
- Phosphate, lipid fraction (m28, male rats, Table 15d): 0.6 *
- Phosphatidylcholine (C18:0,C18:1) (m28, male rats, Table 15d): 0.7 *
- Sphingomyelin (d18:1, C16:0) (m28, male rats, Table 15d): 0.27 *
- Sphingomyelin (d18:1,C23:0) (m28, male rats, Table 15d): 0.48 *
- Sphingomyelin (d18:1,C24:0) (m28, male rats, Table 15d): 0.44 *
- Sphingomyelin (d18:2,C18:0) (m28, male rats, Table 15d): 0.36 *
- TAG No 02 (m28, male rats, Table 15d): 0.34 *
- myo-Inositol, lipid fraction (m28, male rats, Table 15d): 0.51 *
- Cholesterol (m28, Table 14b): 0.39
- Choline plasmalogen No 02 (m28, Table 14b): 0.49
- Lignoceric acid (C24:0) (m28, Table 14b): 0.19
- Sphingomyelin (d18:1, C16:0) (m28, Table 14b): 0.27
- Sphingomyelin (d18:2, C16:0) (m28, Table 14b): 0.37
- erythro-Sphingosine (d18:1) (m28, Table 14b): 0.19
